This is an account of results in paper PMC10146281, “Pharmacokinetic and Pharmacodynamic Characteristics of Pelubiprofen Tromethamine vs. Pelubiprofen in Healthy Subjects” (Pharmaceutics, 2023).

A short description of series [1]: Study I safety and tolerability evaluation (adverse events). In kind it is in vivo, human. To be noted: for adverse events: Study I, 36 subjects evaluated, all mild. The method, then: In both Study I and II, the safety evaluation was performed on subjects administered with the investigational drug at least once. Any clinically significant findings in the interview, physical examination, vital signs, 12-lead electrocardiogram (ECG), the clinical laboratory test, etc., during the study period were collected as adverse events, which were subsequently evaluated for the incidence of serious adverse events, severity, causal relationship, etc. All relevant data were collected through monitoring by the investigator and voluntary reporting by the subjects. To collect additional data, interview and physical examination were performed where necessary. The investigator carried out the follow-up monitoring of the subjects with adverse events until the symptoms subsided and abnormal test values returned to a healthy baseline or until a satisfactory explanation for the observed change could be provided.

Series [2] is described as follows: Study II (DW1809-103): pharmacokinetic analysis of plasma pelubiprofen (LC-MS/MS) after single oral dose. Here is the method:
(§1) In this study, the two independent clinical trials (Study I and II) were conducted using an identical randomized, open-label, oral, single-dose, fasted, two-sequence, four-period, crossover design. Due to the known pharmacokinetic characteristics of pelubiprofen with its large intra-subject variability, the replicated design was chosen to calculate the true intra-coefficient of variation in both studies. Study I tested 25 mg of pelubiprofen tromethamine (36.73 mg of pelubiprofen tromethamine salt; 25 mg of pelubiprofen, Daewon Pharmaceutical Co., Ltd., Seoul, Republic of Korea) against 30 mg of pelubiprofen (30.0 mg of pelubiprofen, Daewon Pharmaceutical Co., Ltd., Seoul, Republic of Korea) as the reference. Study II tested 30 mg of pelubiprofen tromethamine (44.07 mg of pelubiprofen tromethamine salt; 30 mg of pelubiprofen, Daewon Pharmaceutical Co., Ltd., Seoul, Republic of Korea) against 30 mg of pelubiprofen (30.0 mg of pelubiprofen, Daewon Pharmaceutical Co., Ltd., Seoul, Republic of Korea) as the reference. The target number of subjects in both Study I and II was set to N = 36 (N = 18 for each sequence group) (Figure 1, Table 1).
(§2) The subject screening in both Study I and Study II was performed in the four weeks ([…]) prior to the first administration (Day 1). […] In addition, the screened subjects fasted for at least 10 h, excluding drinking water, from approximately 10 p.m. until administration of the investigational drug. The randomization in both Study I and II led the subjects to receive oral administration of a single test or reference tablet with approximately 150 mL of water at each time point from approximately 8 a.m. at approximately 2 min intervals according to their numbers. The subjects in both Study I and II were prohibited from drinking water for an hour before and after the administration, except during drug administration. The post-administration blood sampling and tests were performed as scheduled. All subjects were provided with identical meals approximately 4 h after blood sampling. The subjects in both Study I and II received the blood sampling and tests for the pharmacokinetic (PK) evaluation approximately 8 h after administration. Then, they were discharged following the completion of the first period of the study.
(§3) To analyze the PK characteristics in both Study I and II, approximately 5 mL of blood was sampled before administration (0 h) and at the following time points after administration; 0.083 h (5 min), 0.167 h (10 min), 0.33 h (20 min), and 0.5, 0.75, 1, 1.5, 2, 2.5, 3, 3.5, 4, 6, and 8 h. Therefore, for each subject, the blood sampling was performed 15 times in each period, resulting in a total of 60 times. All four periods proceeded on the same schedule as the first period in both Study I and II. The wash-out period between each consecutive period was set to a minimum of four days. The subjects in both Study I and II, after completing all four periods, chose a day from Day 5 to Day 7 of the final administration in the four period for visiting the center to undergo post study visit.
(§4) The validation of the quantitative analysis of plasma pelubiprofen in this study was performed in accordance with the following guidelines: the Validation Protocol for Pelubiprofen Quantification, the domestic Standard Operating Procedure (SOP) for Bioanalyses, the Guideline of Bioanalytical Method Validation (MFDS, December 2013), and Bioanalytical Method Validation Guidance for Industry (USA FDA, 2018). The plasma pelubiprofen was pretreated using protein precipitation in a dark room at room temperature (15–25 °C) and under shielded light for the subsequent liquid chromatograph tandem mass spectrometry (LC-MS/MS) analysis. The tested items in the validation included the intra-batch and inter-batch accuracy, precision, selectivity, linearity, and stability.

Series [3] is described as follows: Study I (DW1809-102): pharmacokinetic analysis of plasma pelubiprofen (LC-MS/MS) after single oral dose. To be noted: for Tmax: N = 35, median (minimum–maximum). The method, then: as §1, §2, §3, §4
Setting [4] is: Study II, 30 mg pelubiprofen tromethamine vs. 30 mg pelubiprofen.
Where [5] appears, read: Study II, healthy subjects, single oral 30 mg pelubiprofen tromethamine, fasted, N = 33, mean ± SD.
Where [6] appears, read: Study I, healthy subjects, single oral 25 mg pelubiprofen tromethamine, fasted, N = 35, mean ± SD.

As to `CC(C(=O)O)c1ccc(/C=C2\CCCCC2=O)cc1` (stereo not drawn) [Pelubiprofen Tromethamine, pelubiprofen tromethamine], the tolerability and safety result in series [1] (25 mg pelubiprofen tromethamine compared to 30 mg pelubiprofen, healthy subjects, single oral dose) was “outstanding tolerability and safety”. Besides, in series [1] (treatment of the test (25 mg pelubiprofen tromethamine)), the adverse events entry is “one case of adverse events”. Moreover, in series [2] (setting [4]), the “increase of AUC0-t compared to the reference” value is listed as 24% and the “increase of Cmax compared to the reference” value amounted to 29%. In series [2] (setting [5]), this compound came in with an AUC0-inf of 447.75 ± 123.40 ng·h/mL, an AUC0-t of 446.44 ± 123.33 ng·h/mL, a CL/F of 72.08 ± 19.97 L/h and a Cmax of 770.01 ± 347.86 ng/mL. Further, in series [2] (setting [5]), the Vd/F amounted to 94.56 ± 52.40 L and the t1/2 was 57 ± 33.6 min. In addition, the Tmax in series [2] (Study II, healthy subjects, single oral 30 mg pelubiprofen tromethamine, fasted, N = 33, median (minimum–maximum)) was 0.33 (0.17–2.50) h. In addition, in series [3] (Study I, 25 mg pelubiprofen tromethamine dose group), the “time after oral administration at which plasma concentration of pelubiprofen returned to baseline” value was “approximately 4 h”. Also, in series [3] (Study I, 25 mg pelubiprofen tromethamine, criteria 90% CI log 0.70–log 1.43 (Cmax), log 0.8–log 1.25 (AUC0-t)), the “bioequivalence evaluation of Cmax and AUC0-t vs. 30 mg pelubiprofen” value was “satisfied the bioequivalence study criteria”. In addition, in series [3] (setting [6]), the AUC0-inf is 372.12 ± 92.16 ng·h/mL, the AUC0-t came out at 370.76 ± 91.86 ng·h/mL, the CL/F came to 71.78 ± 19.79 L/h and the Cmax is 645.80 ± 237.73 ng/mL. In series [3] (setting [6]), this compound yielded a Vd/F of 87.43 ± 40.63 L and a t1/2 of 52.2 ± 23.4 min. Moreover, the Tmax in series [3] (Study I, healthy subjects, single oral 25 mg pelubiprofen tromethamine, fasted) is 0.33 (0.17–1.50) h. Moreover, the Tmax result in series [3] (Study I, healthy subjects, single oral 25 mg pelubiprofen tromethamine, fasted, listed as pelubiprofen tromethamine) is “approximately 0.33 h”.

Consider `CC(C(=O)O)c1ccc(/C=C2\CCCCC2=O)cc1` (stereo not drawn) [Pelubiprofen, 2-[4-(oxocyclohexylidenemethyl)-phenyl] propionic acid], for which the adverse events entry in series [1] (treatment of reference (30 mg pelubiprofen)) is “three cases of adverse events”. This compound also came in with a CL/F in series [2] (Study II, healthy subjects, single oral 30 mg pelubiprofen (reference), fasted, N = 33, mean ± SD) of 90.55 ± 32.04 L/h. In series [2] (Study II, reference 30 mg pelubiprofen, fasting, four-period repeated crossover), the “highest within-subject variability for Cmax” value was “approximately 58%”. In series [2] (human, plasma, po, 30 mg), the AUC0-inf was determined as 366 ± 108 ng·h/mL, the AUC0-t was 365 ± 108 ng·h/mL, the Cmax was 619 ± 336 ng/mL and the Tmax was found to be 30 min. Further, in series [2] (human, plasma, po, 30 mg), the Vd/F was determined as 119 ± 94.1 L and the half-life is 55.8 ± 41.4 min. This compound also registered a CL/F in series [3] (Study I, healthy subjects, single oral 30 mg pelubiprofen (reference), fasted, N = 35, mean ± SD) of 92.12 ± 28.68 L/h. The Tmax in series [3] (Study I, healthy subjects, single oral 30 mg pelubiprofen (reference), fasted) is 0.33 (0.17–3.50) h. The “highest within-subject variability for Cmax” value in series [3] (Study I, reference 30 mg pelubiprofen, four-period repeated crossover) is given as “approximately 58%”. Further, in series [3] (human, plasma, po, 30 mg), the AUC0-inf stood at 355 ± 103 ng·h/mL, the AUC0-t turned out to be 352 ± 103 ng·h/mL, the concentration peaked (Cmax) at 619 ± 368 ng/mL and the Vd/F amounted to 125 ± 58.8 L. The compound further gave a half-life in series [3] (human, plasma, po, 30 mg) of 59.4 ± 32.4 min. The Tmax in series [3] (human, plasma, po, 30 mg, Tmax, Study I, healthy subjects, single oral 30 mg pelubiprofen (reference), fasted) was roughly 19.8 min.
